Test results: patent US20200121620A1, “SENOLYTIC COMPOUNDS” (UNITED KINGDOM RESEARCH AND INNOVATION, priority 2017, published 2020)

Assays:
IMR90 ER:RAS E6/E7 cells = test: Killing of IMR90 ER:RAS E6/E7 cells (RAS signalling without senescence); assay type: cell-based, human; conditions: 1, 5 and 10 μM; 4OHT vs DMSO; FIG. 5
Method: In these experiments the compounds were tested side by side with a control ABT-263 (the de facto gold standard senolytic compound) (Chang et al., 2016; Yosef et al., 2016; Zhu et al., 2016). Experiments were conducted to test the ability of the compounds to behave as senolytics during OIS (using IMR90 ER:RAS, FIG. 3 and HMEC hTERT ER:RAS, FIG. 4). […] To understand whether the selective killing of senescent IMR90 ER:RAS was a consequence of senescence induction or of activation of RAS signaling, experiments were conducted in isogenic IMR90 ER:RAS E6/E7 cells. In these cells, RAS signalling is induced by adding 100 nM 4OHT that activates the ER:RAS fusion protein. However, expression of the E6/E7 protein prevents senescence induction.

[1] = system: senescent cells in the lung; test: Elimination of senescent cells induced by whole body irradiation in mice; assay type: in vivo; conditions: 6 Gray whole body irradiation; 2 months later treated for 4 consecutive days; FIG. 16
From the text: (A) Experimental set up, mice (n=5 per group) were irradiated with 6 Gray to induce senescence. […] (B) Cryosections of lungs obtained from control and irradiated mice were stained with hematoxilin and eosin (to reveal tissue architecture), and SA-β-Gal (to reveal senescent cells). Senescent cells accumulate in the bronchioles of irradiated mice. (C) Quantification of the lung area positive for SA-β-Gal staining. […] (D). Representative pictures of lung cryosections.
Whole-body irradiation is known to cause senescence. In irradiated mice, senescent cells accumulate in different tissues, including the lung (Chang et al., 2016; Yosef et al., 2016).

[2] = system: senescent human fibroblasts; conditions: Lui et al, Sci Rep 2015; cited from earlier work
IMR90 ER:RAS cells = test: Senolytic activity in IMR90 ER:RAS cells undergoing oncogene-induced senescence (4OHT) vs DMSO-treated non-senescent cells; conditions: 4OHT vs DMSO; FIG. 11
Method: FIG. 1: (A) IMR90 ER:RAS cells were induced to undergo senescence by treating them with 100 nM 4OHT for 6 days. At that point, 10 μM of the indicated drugs was added. In parallel, the same treatments were carried out in IMR90 ER:RAS cells treated with DMSO (−4OHT). […] Cells were fixed at day 6, 8 and 10 after 4OHT induction and stained with crystal violet to assess cell viability. T, Tyr-AG879; P, PF-573228; C, Cyclosporine. (B) A similar experiment to (A) was conducted and cells at day 10 post-induction were fixed and stained with DAPI to assess cell numbers
In the setup used, IMR90 ER:RAS cells were treated with 100 nM 4OHT to induce OIS (oncogene induced senescence) and activate the ER:RAS fusion protein. 6 days after 4OHT induction (+4OHT), once cells were fully senescent, the agents to be tested were added at a concentration of 10 μM, and cell numbers were assessed 4 days after by DAPI stained couple to automated microscopy. Alternatively, cells were fixed and stained with crystal violet. In parallel, the same treatments were carried out in IMR90 ER:RAS cells treated with DMSO (−4OHT).
IMR90 ER:RAS cells were induced to undergo senescence by treating them with 100 nM 4OHT for 6 days. At that point, 10 μM of the indicated drugs was added. In parallel, the same treatments were carried out in IMR90 ER:RAS cells treated with DMSO (−4OHT). […] Cells were fixed at day 6, 8 and 10 after 4OHT induction and stained with crystal violet to assess cell viability. A similar experiment was conducted and cells at day 10 post-induction were fixed and stained with DAPI to assess cell numbers (see FIG. 1).

SMILES | selectivity for killing IMR90 ER:RAS E6/E7 (IMR90 ER:RAS E6/E7 cells) | lung area positive for SA-β-Gal staining (senescent cells) [1] | senescence-associated secretory phenotype (SASP) [2] | senolytic effect of statins, preferential killing of cells undergoing OIS (IMR90 ER:RAS cells)
c1ccc2c(c1)[IH]c1ccccc1-2 [Diphenyleneiodonium chloride] | displayed selectivity for killing IMR90 ER:RAS E6/E7 | partially eliminated | – | –
CCC(C)(C)C(=O)O[C@H]1C[C@@H](C)C=C2C=C[C@H](C)[C@H](CC[C@@H]3C[C@@H](O)CC(=O)O3)[C@H]21 [Simvastatin] | – | – | decrease the senescence-associated secretory phenotype (SASP) | behaves as a senolytic in a concentration dependent manner
